Laboratory results from article PMC3726599, “A Metabolically-Stabilized Phosphonate Analog of Lysophosphatidic Acid Attenuates Collagen-Induced Arthritis” (PLoS ONE, 2013).

Key:
[1] = tested on: collagen induced arthritis (CIA); assay: Collagen induced arthritis (CIA) in DBA/1 mice; assay type: in vivo, mouse
Experimental: CIA in DBA/1 mice was induced by immunization with collagen type II emulsified in complete Freund's adjuvant essentially as previously described, [43]. Mice were assessed for disease clinical signs two to three times per week. Clinical signs of arthritis were determined using the following scoring system: 0: no evidence of erythema and swelling; 1: erythema and mild swelling confined to the […] or ankle joint; 2: erythema and mild swelling extending from the ankle to the […]; 3: erythema and moderate swelling extending from the ankle to metatarsal joints; 4: erythema and severe swelling encompassing the ankle, foot and digits, or ankylosis of the limb.
Paraffin-embedded joint tissue samples were sectioned and stained with hematoxylin and eosin as previously described, [44]. Arthritic histopathology in mice was assessed (in a blinded fashion from 3 independent examiners) using a semi-quantitative scoring system as previously described for CIA in a DBA/1 (H-2^q) background. 0: no detectable pathology; 1: hyperplasia of the synovial membrane and presence of polymorphonuclear infiltrates – mild tendonitis may be present; 2: pannus and fibrous tissue formation and focal subchondrial bone erosion: 3: cartilage destruction and bone erosion in multiple foci; 4: extensive cartilage destruction and bone erosion- bone outline structure lost. Presented results refer to an average score of all four joints.
To examine the therapeutic potential of targeting the ATX/LPA axis in RA, BrP-LPA was injected intraperitoneally twice a week (following immunization boost; Fig. 4A), in groups of mice undergoing the development of collagen induced arthritis (CIA).
A. Schematic representation of immunization and drug administration schemes. DBA/1 mice subjected to CIA were treated intraperitoneally with vehicle, BrP-LPA (10 mg/kg), or dexamethasone (Dex, 3 mg/kg) twice a week. B–C. […] Data are pooled from two different experiments (n = 10). […] Joint sections were assessed histologically in a blinded manner by three independent examiners. Data are shown as mean joint values per mouse ± SD. […] Levels of CII-specific Abs were determined by ELISA in mouse sera.

[2] = Mouse pharmacokinetics, plasma BrP-LPA by HPLC-MS/MS; assay type: in vivo; conditions: 10 mg/kg i.p.
Experimental: BrP-LPA, LPA species (C14:0, C16:0, C18:0, C18:1 and C20:4) and LPC species (C14:0, C16:0, C18:0, C18:1 and C20:0) were measured in plasma with HPLC-ESI/MS/MS using RSLCnano system (Ultimate 3000) coupled in-line with an LTQ Orbitrap XL mass spectrometer (Thermo Scientific, Waltham, MA, USA). BrP-LPA and lipid (LPA, LPC) extraction from plasma was performed on ice according to the Folch method with minor modifications. Plasma samples (50 ul) were mixed with 950 ul PBS prior to extraction and spiked with the internal standard mix (17:1 LPA/LPC). Samples were extracted under neutral conditions with 4 ml of ice-cold CHCl3/CH3OH (2/1, v/v) followed by 2 ml of PBS-saturated ice-cold CHCl3/CH3OH (2/1, v/v). Each extraction step was followed by a 60 s vortex and a 1 min centrifugation step in a bench-top clinical centrifuge in a cold room at 4°C at 3,000 rpm. The lower chloroform organic phases from both neutral extraction steps were pooled and kept for LPC measurement. The remained aqueous phase was chilled on ice for 10 min and extracted twice with ice-cold acidified with acetic acid CHCl3/CH3OH (2/1, v/v) as above. The lower organic phases were pooled, neutralized to pH 6–7 (checked with pH paper as above) on ice and kept for LPA, BrP-LPA measurements. The kept neutral lower organic phase of neutral extraction and the neutralized acidified lower organic phase were evaporated to dryness. The resulting residues were resuspended in 0.15 ml of isopropanol and after brief vortex mixing the solution was transferred to the auto sampler vial. Recovery of LPA species was between 60% and 95%. Recovery of BrP-LPA was 70% and the recovery of LPC species was between 80% and 100%. […] The precursor ion mass was used for the quantification while lipid identity was confirmed by precursor ion fragmentation using collision induced dissociation (CID). […]
BrP-LPA was administered intraperitoneally (IP) at 10 mg/kg in water to 6–8 week old female mice. […] Plasma samples were then analysed for plasma ATX activity and BrP-LPA/LPA/LPC levels with the TOOS activity assay and HPLC-MS/MS respectively. […]

[3] = 10 mg/kg i.p. twice a week, DBA/1 mice

## CCCCCCCCCCCCCCCC(=O)OC[C@@H](O)CC(Br)P(=O)(O)O (stereo partly drawn) [BrP-LPA, 1-bromo-3(S)-hydroxy-4-(palmitoyloxy)butyl-phosphonate]
[1]; [3]
  development of arthritis (number of arthritic limbs per mouse): development of arthritis in significantly fewer mice
  severity per arthritic limb: reduced severity per arthritic limb
[1]; 10 mg/kg i.p. twice a week, H&E
  histopathological analysis of the joints: marked decreased inflammation and synovial hyperplasia
[1]; 10 mg/kg i.p. twice a week, data not shown
  gross physiology / systemic side effects: no appreciable alternation of gross physiology
[1]; ELISA in mouse sera
  levels of anti-collagen antibodies: did not interfere with the levels of anti-collagen antibodies
[1]; data not shown
  BrP-LPA levels in joint tissue versus liver tissue and plasma: persist for longer in joint tissue
[1]; three days after the last injection, data not shown
  LPA (or LPC) levels in plasma or joint tissue at end of monitoring: no changes in LPA (or LPC) levels were detected
[2]; at 16 h
  Cmin: 0.15 µM
[2]; female mice
  Cmax: 8 µM
  t1/2: 50 min
